Laboratory results taken from ChEMBL document CHEMBL1201862, “PubChem BioAssay data set” (2004).
Active and inactive are the calls of the source.

Legend:
[1] = biological target: Benomyl/methotrexate resistance protein (Candida albicans, UniProt P28873); experiment: CaMdr1 efflux pump inhibitor potency, dose response, singleplex, Cherry Pick1 hits (AID 588608); assay type: functional
[2] = biological target: Multidrug resistance protein CDR1 (Candida albicans, UniProt P43071); experiment: CaCDR1 efflux pump inhibitors in yeast, dose response, S. cerevisiae AD1-8u, singleplex, Cherry Pick1 hits (AID 588606); assay type: functional
Sequence of Multidrug resistance protein CDR1 (P43071 whole entry, looked up): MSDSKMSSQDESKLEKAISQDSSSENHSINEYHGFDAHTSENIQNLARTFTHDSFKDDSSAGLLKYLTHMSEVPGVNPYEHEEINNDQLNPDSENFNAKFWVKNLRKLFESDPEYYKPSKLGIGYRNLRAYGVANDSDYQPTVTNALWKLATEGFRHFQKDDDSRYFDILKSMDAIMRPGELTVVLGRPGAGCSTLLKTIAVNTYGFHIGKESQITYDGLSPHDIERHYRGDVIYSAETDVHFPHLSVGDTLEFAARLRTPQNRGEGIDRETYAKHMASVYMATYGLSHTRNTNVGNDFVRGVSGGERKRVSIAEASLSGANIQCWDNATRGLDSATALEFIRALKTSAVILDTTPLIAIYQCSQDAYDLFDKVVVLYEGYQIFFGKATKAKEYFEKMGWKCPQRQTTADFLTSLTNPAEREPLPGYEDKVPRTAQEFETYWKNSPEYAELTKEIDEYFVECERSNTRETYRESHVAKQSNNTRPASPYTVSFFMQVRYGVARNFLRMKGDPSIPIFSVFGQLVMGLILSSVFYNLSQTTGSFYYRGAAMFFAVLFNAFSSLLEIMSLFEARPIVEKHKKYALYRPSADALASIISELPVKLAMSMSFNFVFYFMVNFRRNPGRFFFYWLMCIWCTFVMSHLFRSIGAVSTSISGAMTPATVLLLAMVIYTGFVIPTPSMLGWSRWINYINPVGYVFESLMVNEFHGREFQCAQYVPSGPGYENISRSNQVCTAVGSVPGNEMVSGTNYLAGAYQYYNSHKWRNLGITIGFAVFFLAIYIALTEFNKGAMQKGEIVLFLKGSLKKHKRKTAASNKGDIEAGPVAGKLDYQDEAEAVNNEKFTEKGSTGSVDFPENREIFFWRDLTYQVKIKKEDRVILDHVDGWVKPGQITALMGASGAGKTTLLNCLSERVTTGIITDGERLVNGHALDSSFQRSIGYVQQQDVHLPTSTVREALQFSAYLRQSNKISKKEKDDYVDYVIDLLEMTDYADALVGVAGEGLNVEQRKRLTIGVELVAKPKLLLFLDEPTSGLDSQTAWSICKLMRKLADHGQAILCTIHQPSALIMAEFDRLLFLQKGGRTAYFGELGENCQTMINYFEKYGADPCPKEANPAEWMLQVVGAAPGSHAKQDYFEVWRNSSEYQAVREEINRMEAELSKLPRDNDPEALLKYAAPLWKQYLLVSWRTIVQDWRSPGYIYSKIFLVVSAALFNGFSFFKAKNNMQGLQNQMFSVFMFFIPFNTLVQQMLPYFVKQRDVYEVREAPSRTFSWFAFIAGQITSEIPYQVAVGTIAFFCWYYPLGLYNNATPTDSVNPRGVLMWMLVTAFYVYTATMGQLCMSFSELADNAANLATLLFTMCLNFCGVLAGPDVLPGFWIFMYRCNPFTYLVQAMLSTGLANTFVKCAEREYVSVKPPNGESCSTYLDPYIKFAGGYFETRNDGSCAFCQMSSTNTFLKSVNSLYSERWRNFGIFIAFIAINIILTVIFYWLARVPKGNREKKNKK

[3] = biological target: Multidrug resistance protein CDR2 (Candida albicans (strain SC5314 / ATCC MYA-2876) (Yeast), UniProt P78595); experiment: CaCDR2 efflux pump inhibitors in yeast, dose response, S. cerevisiae AD1-8u, singleplex, Cherry Pick1 hits (AID 588604); assay type: functional
Beta-galactosidase = Beta-galactosidase (Escherichia coli, UniProt Q8VNN2); experiment: Dose response counterscreen for EBI2 assay utilizing the enzyme, b-galactosidase.; assay type: functional
[4] = biological target: Serine/threonine-protein kinase TBK1 (Homo sapiens, UniProt Q9UHD2); experiment: Navigating the Kinome. Panel member name: TBK1; assay type: functional
[5] = biological target: 5'-AMP-activated protein kinase catalytic subunit alpha-1 (Homo sapiens, UniProt Q13131); assay type: functional
[6] = biological target: Tyrosine-protein kinase receptor TYRO3 (Homo sapiens, UniProt Q06418); assay type: functional;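 note: TYRO3 value obtained as one member of a kinome-wide profiling panel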
[7] = biological target: Death-associated protein kinase 3 (Homo sapiens, UniProt O43293); assay type: functional;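 note: measured as one member of a kinome-wide profiling panel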
Activin receptor type-1 = Activin receptor type-1 (Homo sapiens, UniProt Q04771); experiment: Navigating the Kinome. Panel member name: ACVR1; assay type: functional
Sequence of Activin receptor type-1 (Q04771 whole entry): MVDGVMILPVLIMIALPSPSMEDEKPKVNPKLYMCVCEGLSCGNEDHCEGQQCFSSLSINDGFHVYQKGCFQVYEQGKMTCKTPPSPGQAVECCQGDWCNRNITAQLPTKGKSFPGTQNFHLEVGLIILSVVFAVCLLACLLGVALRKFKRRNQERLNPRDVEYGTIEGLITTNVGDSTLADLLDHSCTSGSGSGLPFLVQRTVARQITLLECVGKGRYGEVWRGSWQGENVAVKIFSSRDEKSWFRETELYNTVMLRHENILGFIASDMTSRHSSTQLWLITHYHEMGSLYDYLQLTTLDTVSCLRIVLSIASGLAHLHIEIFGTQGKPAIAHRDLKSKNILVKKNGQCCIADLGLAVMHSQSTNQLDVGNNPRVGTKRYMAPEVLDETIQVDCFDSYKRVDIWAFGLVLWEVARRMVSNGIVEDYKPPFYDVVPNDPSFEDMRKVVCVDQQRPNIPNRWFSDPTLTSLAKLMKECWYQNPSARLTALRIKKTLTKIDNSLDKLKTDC

Aurora kinase A = Aurora kinase A (Homo sapiens, UniProt O14965); assay type: functional;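 note: value from the Navigating the Kinome kinase panel profiling, panel entry STK6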
Sequence of Aurora kinase A (O14965 whole entry, the tested form may be a part): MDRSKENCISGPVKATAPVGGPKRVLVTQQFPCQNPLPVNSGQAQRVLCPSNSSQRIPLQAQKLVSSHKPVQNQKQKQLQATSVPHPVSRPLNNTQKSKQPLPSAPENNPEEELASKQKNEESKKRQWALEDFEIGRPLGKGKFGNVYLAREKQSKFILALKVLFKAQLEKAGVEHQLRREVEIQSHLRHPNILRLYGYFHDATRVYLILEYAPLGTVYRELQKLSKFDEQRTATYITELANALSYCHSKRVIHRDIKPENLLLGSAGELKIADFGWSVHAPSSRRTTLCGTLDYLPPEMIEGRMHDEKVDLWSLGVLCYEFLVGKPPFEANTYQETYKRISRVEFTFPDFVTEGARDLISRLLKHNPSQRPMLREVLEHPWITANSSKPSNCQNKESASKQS

LIM domain kinase 1 = LIM domain kinase 1 (Homo sapiens, UniProt P53667); experiment: Navigating the Kinome. Panel member name: LIMK1; assay type: functional
Sequence of LIM domain kinase 1 (P53667 whole entry, the tested form may be a part): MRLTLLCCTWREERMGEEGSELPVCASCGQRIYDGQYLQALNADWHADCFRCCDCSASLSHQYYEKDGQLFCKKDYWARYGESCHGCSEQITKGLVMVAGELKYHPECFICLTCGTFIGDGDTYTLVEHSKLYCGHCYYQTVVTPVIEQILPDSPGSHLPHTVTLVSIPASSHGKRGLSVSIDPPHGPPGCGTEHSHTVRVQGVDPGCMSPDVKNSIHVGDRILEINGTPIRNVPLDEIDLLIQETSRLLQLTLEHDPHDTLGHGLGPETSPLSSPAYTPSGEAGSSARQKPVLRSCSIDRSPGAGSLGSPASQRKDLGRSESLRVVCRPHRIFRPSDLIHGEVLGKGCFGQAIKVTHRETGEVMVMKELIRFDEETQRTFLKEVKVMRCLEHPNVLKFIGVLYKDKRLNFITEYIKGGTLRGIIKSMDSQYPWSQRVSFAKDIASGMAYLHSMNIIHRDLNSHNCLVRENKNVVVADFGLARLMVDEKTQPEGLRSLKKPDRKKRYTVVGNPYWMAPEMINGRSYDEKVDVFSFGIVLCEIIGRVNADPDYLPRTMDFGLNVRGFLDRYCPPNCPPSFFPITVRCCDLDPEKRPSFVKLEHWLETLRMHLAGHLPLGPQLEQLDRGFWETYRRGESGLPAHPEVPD

[8] = biological target: Cyclin-dependent kinase 5 (Homo sapiens, UniProt Q00535); assay type: functional;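 note: CDK5 measured as one member of a kinase profiling panel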
[9] = biological target: Dual specificity tyrosine-phosphorylation-regulated kinase 1B (Homo sapiens, UniProt Q9Y463); experiment: Navigating the Kinome. Panel member name: DYRK1B; assay type: functional
[10] = biological target: cAMP-dependent protein kinase catalytic subunit PRKX (Homo sapiens, UniProt P51817); assay type: functional
[11] = biological target: Platelet-derived growth factor receptor alpha (Homo sapiens, UniProt P16234); experiment: Navigating the Kinome. Panel member name: PDGFRA; assay type: functional
[12] = biological target: Leucine-rich repeat serine/threonine-protein kinase 2 (Homo sapiens, UniProt Q5S007); assay type: functional;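 note: value from a broad kinome-wide panel profiling study in which LRRK2 was one of the kinases tested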
[13] = biological target: Serine/threonine-protein kinase Nek2 (Homo sapiens, UniProt P51955); assay type: functional
[14] = biological target: Cyclin-dependent kinase 8 (Homo sapiens, UniProt P49336); experiment: Navigating the Kinome. Panel member name: CDK8; assay type: functional
Sequence of Cyclin-dependent kinase 8 (P49336 whole entry): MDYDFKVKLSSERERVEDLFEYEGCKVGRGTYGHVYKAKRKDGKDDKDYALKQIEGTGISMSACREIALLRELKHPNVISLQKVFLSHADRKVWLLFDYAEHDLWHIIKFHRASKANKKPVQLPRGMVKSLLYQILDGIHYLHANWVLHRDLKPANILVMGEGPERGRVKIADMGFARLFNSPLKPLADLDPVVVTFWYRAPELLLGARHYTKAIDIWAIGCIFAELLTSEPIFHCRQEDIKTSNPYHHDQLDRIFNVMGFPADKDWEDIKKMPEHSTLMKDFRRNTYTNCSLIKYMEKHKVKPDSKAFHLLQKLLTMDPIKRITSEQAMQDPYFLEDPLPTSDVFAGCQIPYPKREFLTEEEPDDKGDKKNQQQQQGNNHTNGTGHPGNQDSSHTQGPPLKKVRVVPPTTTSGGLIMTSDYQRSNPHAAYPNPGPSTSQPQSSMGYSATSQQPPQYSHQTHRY

[15] = biological target: Cyclin-dependent kinase 9 (Homo sapiens, UniProt P50750); assay type: functional;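 note: value from the CDK9 entry of a kinome-spanning kinase panel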
[16] = biological target: Dual specificity protein kinase CLK4 (Homo sapiens, UniProt Q9HAZ1); assay type: functional
[17] = biological target: Dual specificity tyrosine-phosphorylation-regulated kinase 1A (Homo sapiens, UniProt Q13627); assay type: functional;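 note: measured against DYRK1A as one member of a broad kinome profiling panel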
[18] = biological target: Inhibitor of nuclear factor kappa-B kinase subunit epsilon (Homo sapiens, UniProt Q14164); experiment: Navigating the Kinome. Panel member name: IKBKE; assay type: functional
[19] = biological target: Leukocyte tyrosine kinase receptor (Homo sapiens, UniProt P29376); experiment: Navigating the Kinome. Panel member name: LTK; assay type: functional
Sequence of Leukocyte tyrosine kinase receptor (P29376 whole entry): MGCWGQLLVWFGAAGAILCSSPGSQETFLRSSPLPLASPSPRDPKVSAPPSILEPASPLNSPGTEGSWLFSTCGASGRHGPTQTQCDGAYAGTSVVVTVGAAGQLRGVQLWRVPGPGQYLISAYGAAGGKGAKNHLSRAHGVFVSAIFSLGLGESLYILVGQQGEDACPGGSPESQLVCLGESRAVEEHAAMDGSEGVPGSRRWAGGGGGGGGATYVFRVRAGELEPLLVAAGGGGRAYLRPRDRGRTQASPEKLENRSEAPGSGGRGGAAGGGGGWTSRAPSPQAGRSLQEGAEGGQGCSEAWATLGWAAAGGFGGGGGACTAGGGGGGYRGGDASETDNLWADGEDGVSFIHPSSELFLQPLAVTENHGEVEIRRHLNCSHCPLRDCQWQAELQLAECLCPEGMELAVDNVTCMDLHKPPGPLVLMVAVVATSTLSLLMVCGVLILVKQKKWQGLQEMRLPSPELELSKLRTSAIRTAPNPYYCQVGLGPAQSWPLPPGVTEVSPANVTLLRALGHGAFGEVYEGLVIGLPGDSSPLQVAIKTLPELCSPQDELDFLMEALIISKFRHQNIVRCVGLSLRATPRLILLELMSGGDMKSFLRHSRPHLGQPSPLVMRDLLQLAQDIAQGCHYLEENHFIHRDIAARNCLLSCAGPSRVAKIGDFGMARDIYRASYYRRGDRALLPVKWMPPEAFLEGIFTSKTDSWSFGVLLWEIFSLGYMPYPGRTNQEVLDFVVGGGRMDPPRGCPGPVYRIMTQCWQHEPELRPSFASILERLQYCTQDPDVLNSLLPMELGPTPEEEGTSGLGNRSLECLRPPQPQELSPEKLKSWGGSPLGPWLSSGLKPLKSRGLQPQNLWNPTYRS

[20] = biological target: RAC-gamma serine/threonine-protein kinase (Homo sapiens, UniProt Q9Y243); assay type: functional
[21] = biological target: Serine/threonine-protein kinase pim-1 (Homo sapiens, UniProt P11309); assay type: functional
[22] = biological target: Serine/threonine-protein kinase PAK 1 (Homo sapiens, UniProt Q13153); assay type: functional
Sequence of Serine/threonine-protein kinase PAK 1 (Q13153 whole entry): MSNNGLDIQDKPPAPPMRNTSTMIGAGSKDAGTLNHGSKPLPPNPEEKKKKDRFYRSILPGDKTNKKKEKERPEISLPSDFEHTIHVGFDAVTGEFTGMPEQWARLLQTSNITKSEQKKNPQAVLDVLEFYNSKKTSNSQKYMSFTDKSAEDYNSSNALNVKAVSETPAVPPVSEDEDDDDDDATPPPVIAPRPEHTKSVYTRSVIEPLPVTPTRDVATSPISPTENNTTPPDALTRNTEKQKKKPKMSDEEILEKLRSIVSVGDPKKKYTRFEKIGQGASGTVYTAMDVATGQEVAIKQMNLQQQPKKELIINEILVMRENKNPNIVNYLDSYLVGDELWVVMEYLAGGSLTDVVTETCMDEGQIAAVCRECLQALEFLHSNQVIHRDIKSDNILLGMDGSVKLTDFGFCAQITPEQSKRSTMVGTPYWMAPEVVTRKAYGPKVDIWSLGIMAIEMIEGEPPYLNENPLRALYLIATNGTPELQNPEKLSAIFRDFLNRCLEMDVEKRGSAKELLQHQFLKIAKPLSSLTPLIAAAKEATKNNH

[23] = biological target: Serine/threonine-protein kinase pim-3 (Homo sapiens, UniProt Q86V86); assay type: functional;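 note: value obtained as one member of a broad kinase panel profiling effort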
[24] = biological target: Receptor-type tyrosine-protein kinase FLT3 (Homo sapiens, UniProt P36888); assay type: functional;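 note: FLT3 was tested as one member of a kinome-wide kinase panel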
[25] = biological target: MAP kinase-interacting serine/threonine-protein kinase 2 (Homo sapiens, UniProt Q9HBH9); assay type: functional
Aurora kinase B = Aurora kinase B (Homo sapiens, UniProt Q96GD4); assay type: functional
[26] = biological target: Interleukin-1 receptor-associated kinase 4 (Homo sapiens, UniProt Q9NWZ3); assay type: functional
[27] = biological target: Serine/threonine-protein kinase DCLK1 (Homo sapiens, UniProt O15075); assay type: functional;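 note: affinity for DCLK1 (listed as DCAMKL1) measured as one member of a kinome-wide kinase profiling panel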
[28] = biological target: Serine/threonine-protein kinase MRCK alpha (Homo sapiens, UniProt Q5VT25); assay type: functional
[29] = biological target: Serine/threonine-protein kinase BRSK1 (Homo sapiens, UniProt Q8TDC3); assay type: functional;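 note: measured within a kinome-wide kinase panel, with the target listed as KIAA1811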
[30] = inhibitors of firefly luciferase expression or activity, dose response, H4 neuroglioma cells, luminescence (AID 1990); assay type: functional, cell-based
BJ [31] = experiment: cytotoxicity toward BJ-TERT fibroblasts, dose response, cell-based, RAS-independent, luminescence (AID 1933); assay type: functional; conditions: Homo sapiens
[32] = Luminescence Cell-Based Dose Response HTS to Identify Inhibitors of 5'UTR Stem-Loop Driven Prion Protein mRNA Translation in H4 Neuroglioblastoma Cells. [Related pubchem assays: 1827 (Project Summary), 1813 (Primary HTS)]; assay type: functional
[33] = inhibitors of SNCA 5'UTR-driven reporter translation, confirmation, H4 neuroglioma cells, luminescence (AID 1988); assay type: functional, cell-based
BJ [34] = experiment: cells; assay type: functional, cell-based; conditions: Homo sapiens
BJ [35] = experiment: cytotoxicity toward BJ-TERT-LT-ST fibroblasts, dose response, cell-based, RAS-independent, luminescence (AID 1935); assay type: functional; conditions: Homo sapiens;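 note: BJ fibroblasts immortalized with TERT plus LT and ST oncogenes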
[36] = cytotoxicity toward DRD oncogenic fibroblasts, dose response, cell-based, non-viral oncogenic, luminescence (AID 1934); assay type: functional; conditions: Homo sapiens
[37] = biological target: T1, Heat shock factor protein 1 (Mus musculus, UniProt P38532); experiment: HSF1 potentiators in luciferase reporter cells, confirmation, cell-based, NIH3T3, luminescence, dose retest (AID 435004); assay type: functional;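 note: stress induced by proteasome inhibitor MG132 added 30 min after compound; luciferase reporter driven by HSF1 response element in NIH3T3 cells; actives raise luminescence as potentiators of the MG132 stress response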
T1 sequence (P38532 whole entry): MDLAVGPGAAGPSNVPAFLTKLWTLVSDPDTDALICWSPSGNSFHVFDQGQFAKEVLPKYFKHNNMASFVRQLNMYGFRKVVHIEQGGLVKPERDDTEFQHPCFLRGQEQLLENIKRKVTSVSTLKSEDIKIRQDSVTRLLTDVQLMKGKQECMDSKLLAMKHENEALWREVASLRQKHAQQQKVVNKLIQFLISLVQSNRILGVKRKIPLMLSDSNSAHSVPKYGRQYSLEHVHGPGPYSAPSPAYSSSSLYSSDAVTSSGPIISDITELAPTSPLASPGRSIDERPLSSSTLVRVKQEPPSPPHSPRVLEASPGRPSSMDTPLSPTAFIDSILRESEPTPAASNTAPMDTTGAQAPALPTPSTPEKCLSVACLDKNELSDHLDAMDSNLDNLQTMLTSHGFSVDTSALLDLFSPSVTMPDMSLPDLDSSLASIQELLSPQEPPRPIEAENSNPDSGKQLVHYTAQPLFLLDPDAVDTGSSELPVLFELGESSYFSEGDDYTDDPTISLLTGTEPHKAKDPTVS

Vero [38] = experiment: cells; assay type: functional, cell-based; conditions: Chlorocebus sabaeus
BJ [39] = experiment: cytotoxicity toward Ras-transformed BJeLR fibroblasts, dose response, cell-based, alamar blue fluorescence, cherrypicked samples (AID 2631); assay type: functional; conditions: Homo sapiens;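 note: confirmatory dose-response assay in RAS-dependent BJ fibroblasts engineered with TERT, LT and ST, with cytotoxicity read by fluorescence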
INS1 = experiment: beta cell apoptosis inhibitors, cytokine rescue, dose response, luminescence, retest (AID 449756); assay type: functional, cell-based; conditions: Rattus norvegicus, INS1;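 note: cell death triggered by IL-1 beta plus TNF-alpha plus IFN-gamma mixture; protective hits raise ATP signal compared with cytokine alone wells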
Vero [40] = experiment: cells; assay type: functional; conditions: Chlorocebus sabaeus
[41] = biological target: Protein disulfide-isomerase (Homo sapiens, UniProt P07237); experiment: PDI inhibitors, insulin aggregation turbidity, dose response, biochemical, absorbance, cherry-picked samples (AID 602350); assay type: functional
[42] = Fluorescence-based cell-based high throughput dose response assay for inhibitors of the interaction of nucleotide-binding oligomerization domain containing 2 (NOD2) and the receptor-interacting serine-threonine kinase 2 (RIPK2).; assay type: functional; conditions: Homo sapiens
[43] = HEK293T cell cytotoxicity, dose response, cytotoxicity control for HIV Vif inhibitor project, cherry-picks (AID 652208); assay type: functional, cell-based
Paired box protein Pax-8 = Paired box protein Pax-8 (Homo sapiens, UniProt Q06710); experiment: inhibitors of PAX8-driven TPO luciferase reporter, dose response, RMG-I cells, cherry-pick (AID 687027); assay type: functional, cell-based;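 note: luciferase reporter driven by Pax8 target thyroperoxidase promoter measured by SteadyGlo luminescence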
[44] = PAX2 cell-based inhibition, dose response, selectivity assay for PAX8 inhibitor project, plate reader, dry powder samples (AID 743048); assay type: functional;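 note: HEK293 cells carrying a WT1 promoter luciferase reporter driven by expressed Pax2; potency is for inhibition of Pax2 driven reporter signal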
[45] = cytotoxicity in COV362 ovarian cancer cells, dose response, cytotoxicity control for PAX8 inhibitor project, cell-based, plate reader, dry powder, SA12 (AID 743144); assay type: functional
[46] = IOSE-T80 ovarian epithelial cell cytotoxicity, dose response, cytotoxicity control for PAX8 inhibitor project, plate reader, dry powder samples (AID 743045); assay type: functional, cell-based
[47] = A2780 ovarian cancer cell cytotoxicity, dose response, cytotoxicity control, plate reader, dry powder samples (AID 743046); assay type: functional, cell-based
[48] = NIH:OVCAR-3 ovarian cancer cell cytotoxicity, dose response, PAX8 inhibitor project, plate reader, dry powder samples (AID 743044); assay type: functional, cell-based
[49] = PAX5 activity inhibitors, dose response, selectivity assay for PAX8 inhibitor project, cell-based, plate reader, dry powder samples (AID 743047); assay type: functional;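 note: HEK293 cells carrying a Pax5 driven CD19 promoter luciferase reporter; potency of inhibitors that lower reporter luminescence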
[50] = IGROV1 ovarian cancer cell cytotoxicity, dose response, PAX8 inhibitor project, plate reader, dry powder samples (AID 743043); assay type: functional, cell-based; conditions: IGROV-1
[51] = cytotoxicity in OVCAR4 cells, dose response, cytotoxicity control for PAX8 inhibitor project, cell-based, plate reader, dry powder, SA11 (AID 743150); assay type: functional; conditions: OVCAR-4
[52] = cytotoxicity in COV434 cells, dose response, cytotoxicity control for PAX8 inhibitor project, cell-based, plate reader, dry powder, SA7 (AID 743145); assay type: functional
[53] = cytotoxicity in OV-90 ovarian cancer cells, dose response, PAX8 inhibitor project, cell-based, plate reader, dry powder, SA8 (AID 743149); assay type: functional
[54] = cytotoxicity dependent on PAX8, dose response, cell-based, plate reader, dry powder (AID 743049); assay type: functional

In the case of `O=C1C(Cc2ccccc2)Nc2ncnc(N3CCN(c4ccccc4)CC3)c2N1Cc1ccc(Br)cc1` (configuration not stated), the EC50 [1] is reported as 21.2 µM (active), the EC50 [2] is reported as 11.1 µM (active) and the EC50 [3] is reported as 10.8 µM (active). For the same compound, the IC50 (Beta-galactosidase) was 2.54 µM (active).

In the case of `Cc1cc(=O)[nH]c2[nH]n(-c3ccccc3)c(=O)c12`, the Ki [4] is reported as 50.1 µM (active), the Ki [5] is reported as 79.4 µM (active) and the Ki [6] is reported as 50.1 µM (active). The Ki [7] was 63.1 µM (active), the Ki (Activin receptor type-1) was 79.4 µM (active) and the Ki (Aurora kinase A) was 50.1 µM (active). The Ki (LIM domain kinase 1) was 12.6 µM (active), the Ki [8] was 50.1 µM (active) and the Ki [9] was 12.6 µM (active). For the same compound, the Ki [10] was 63.1 µM (active), the Ki [11] was 100 µM (active) and the Ki [12] was 39.8 µM (active). For the same compound, the Ki [13] was 50.1 µM (active), the Ki [14] was 39.8 µM (active) and the Ki [15] was 39.8 µM (active). The Ki [16] was 10 µM (active), the Ki [17] was 20 µM (active) and the Ki [18] was 50.1 µM (active). For the same compound, the Ki [19] was 20 µM (active).

For `NC(=O)c1cccc2[nH]c(-c3cccc(NCCN4CCCC4)n3)nc12`, the Ki [20] was > 10 µM (inactive), the Ki [21] was 2 µM (active) and the Ki [22] was > 10 µM (inactive). For the same compound, the Ki (LIM domain kinase 1) was > 10 µM (inactive), the Ki [23] was 1 µM (active) and the Ki [24] was 1.26 µM (active). For the same compound, the Ki [25] was 2.51 µM (active), the Ki (Aurora kinase B) was 1.26 µM (active) and the Ki [26] was > 10 µM (inactive). The Ki [27] was > 10 µM (inactive), the Ki [28] was > 10 µM (inactive) and the Ki [29] was 5.01 µM (active).

With `COc1ccc(/C=C2\CN(Cc3ccccc3)C/C(=C\c3ccc(OC)c(O)c3)C2=O)cc1O` the EC50 [30] was 8.62 µM (inconclusive), the EC50 (BJ [31]) was 2.04 µM (active) and the EC50 [32] was > 120 µM (not active). For the same compound, the EC50 [33] was 9.23 µM (inconclusive), the EC50 (BJ [34]) was 4.4 µM (active) and the EC50 (BJ [35]) was 2.23 µM (active). The EC50 [36] was 2.65 µM (active), the EC50 [37] was 8.35 µM (active) and the IC50 (Vero [38]) was 23.2 µM (active). For the same compound, the EC50 (BJ [39]) was 435 nM (active), the AC50 (INS1) was 4.23 µM (active) and the CC50 (Vero [40]) was 2.75 µM (active). The AC50 [41] was 2.98 µM (active), the IC50 [42] was 5.53 µM (active) and the AC50 [43] was 5.24 µM (active). The AC50 (Paired box protein Pax-8) was 4.63 µM (active), the AC50 [44] was 14.2 µM (active) and the AC50 [45] was 4.34 µM (active). The AC50 [46] was 8.94 µM (active), the AC50 [47] was 12.5 µM (active) and the AC50 [48] was 7.31 µM (active). For the same compound, the AC50 [49] was 14.3 µM (active), the AC50 [50] was 21.6 µM (active) and the AC50 [51] was 4.93 µM (active). For the same compound, the AC50 [52] was 4.16 µM (active), the AC50 [53] was 3.79 µM (active) and the AC50 [54] was 9.32 µM (active).
